Results: article PMC10403075, “Short hydrocarbon stapled ApoC2-mimetic peptides activate lipoprotein lipase and lower plasma triglycerides in mice” (Frontiers in Cardiovascular Medicine, 2023)
One block for each compound: values may come before it. Positions of bridges follow the written chain, without caps; N, C: chain ends. Non-standard residues stand in square brackets, D forms with d. Residues, ends and D or L forms follow the SMILES beside them. R8 = C=CCCCCCC[C@@](C)(N)C(=O)O; S5 = C=CCCC[C@](C)(N)C(=O)O

Tests used:
[1] = Circular dichroism spectroscopy; type: physicochemical; settings: CD 190-250 nm
Description: Circular dichroism (CD) spectra were acquired on a Chirascan Q100 spectrometer. CD spectra were recorded in the190–250 nm range, using a 0.1 cm quartz cell and analyzed with Bettsele® on-line software ([24]).

Apoc2^h/h mice = experiment: Plasma lipids in ApoC2-hypomorphic mice after peptide injection; type: in vivo, mouse; settings: single IP 1 umole/kg, n = 5
Description: ApoC2–hypomorphic mice (Apoc2^h/h) ([25]) and human ApoC3-transgenic (hAPOC3-tg) mice ([26]) were fed a regular rodent chow diet (NIH-31 chow diet: Zeigler Brothers Inc.). Peptides dissolved in 20 mM TRIS (pH 8.2) or vehicle control were injected intraperitoneally or intravenously at the indicated concentrations. Blood samples were collected from the retro-orbital sinus with a heparinized capillary tube. Whole blood was centrifuged at 1,000 g for 20 min at 4°C to obtain plasma. All animal procedures were approved by the National Heart, Lung, and Blood Institute Animal Care and Use Committee (protocol #H-0050).

trypsin = experiment: Peptide proteolysis resistance, trypsin; type: in vitro ADME; settings: peptide 0.1 mM, 10 ug/ml trypsin, 20 mM ammonium bicarbonate pH 8.2, 37°C, MALDI-TOF with internal standards, first time point 3 h, triplicates
Description: (§1) Peptides (0.1 mM) were incubated at 37°C in 20 mM ammonium bicarbonate buffer at pH 8.2, with 10 ug/ml trypsin or […] Proteinase K. To test resistance to Pepsin, peptides (0.1 mM) were incubated with Pepsin (3 mg/ml) in 0.02M acetate buffer (pH 2). The amount of intact peptide was monitored over time by Matrix-assisted laser desorption/ionization time-of-flight (MALDI-TOF) on a Bruker Autoflex III instrument (Bruker Optics, Inc., USA). Internal standards (Bombesin, ACTH (1–17), ACTH (18–39) and Insulin) were used to quantify the relative amount of peptide in each sample.

Proteinase K = Proteinase K (Parengyodontium album, UniProt P06873); type: in vitro ADME; settings: peptide 0.1 mM, 16 ug/kg Proteinase K, 20 mM ammonium bicarbonate pH 8.2, 37°C, MALDI-TOF with internal standards, first time point 3 h, triplicates
Description: as §1

LPL from bovine milk = biological target: T1, LPL from bovine milk (Bos taurus, UniProt P11151); experiment: In vitro LPL activity assay (NEFA generation, ApoC2-deficient plasma substrate); type: biochemical; settings: 0-2 µM peptide, ApoC2-deficient plasma substrate, NEFA read-out, triplicates; for in vitro LPL activation, dose response (result in words): bovine milk LPL, 37°C 1 h; for EC50: 0.83 nM bovine milk LPL, 30 min on ice then 37°C 1 h, read-out: EC50 for stimulating lipolysis (LPL activation)
T1 construct: LPL from bovine milk (Sigma-Aldrich); purchased Sigma-Aldrich; host or cells: bovine milk (natural source)
T1 sequence (P11151 29-478): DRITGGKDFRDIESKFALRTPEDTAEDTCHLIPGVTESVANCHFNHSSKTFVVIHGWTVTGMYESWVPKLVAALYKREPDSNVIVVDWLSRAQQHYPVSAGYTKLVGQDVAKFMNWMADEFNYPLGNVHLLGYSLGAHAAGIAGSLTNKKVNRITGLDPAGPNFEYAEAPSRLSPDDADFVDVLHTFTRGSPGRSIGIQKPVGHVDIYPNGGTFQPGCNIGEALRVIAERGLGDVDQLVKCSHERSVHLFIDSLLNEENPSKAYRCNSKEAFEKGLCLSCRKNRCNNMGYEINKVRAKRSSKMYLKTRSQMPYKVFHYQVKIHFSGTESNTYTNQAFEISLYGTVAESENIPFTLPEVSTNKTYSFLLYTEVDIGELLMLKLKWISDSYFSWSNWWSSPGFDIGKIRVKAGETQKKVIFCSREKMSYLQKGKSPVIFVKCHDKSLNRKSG
Description: LPL activity was determined by measuring the generation of non-esterified fatty acids (NEFA). In a 96-well plate, 0–2 µM of an ApoC2 mimetic peptide, 0.83 nM of LPL from bovine milk (Sigma-Aldrich), ApoC2-deficient ethylenediaminetetraacetic acid (EDTA)-plasma (diluted with PBS to a final TG concentration of 0.67 mg/dl), 2 IU/ml heparin, 0.2% fatty acids free bovine serum albumin (BSA) (ICN Biomedicals), and PBS (Life Technologies) were combined in a final reaction volume of 50 μl. The reaction mixture was pre-incubated on ice for 30 min and incubated at 37°C for 1 h. NEFA were measured with a coupled enzyme reaction (Wako Diagnostics) in a Synergy H1 microplate reader (BioTek, USA).

Pepsin = experiment: Peptide proteolysis resistance, pepsin; type: in vitro ADME; settings: peptide 0.1 mM, pepsin 3 mg/ml, 0.02M acetate buffer pH 2, 1 h, MALDI-TOF with internal standards, triplicates
Description: as §1

[2] = DMPC vesicle clearance (solubilization) assay; type: physicochemical; settings: peptide 0-100 µM in 20 mM TRIS pH 8.2, DMPC vesicles 0.5 mg/ml in PBS, absorbance 660 nm, 1 h, 24°C
Description: Dimyristoyl Phosphatidyl Choline (DMPC) (Avanti 850345C) vesicles were made by sonication (0.5 mg/ml) in phosphate buffer saline (PBS). Peptides (0, 25, 50 and 100 µM) in 20 mM TRIS, pH 8.2 were added to DMPC vesicles (0.5 mg/ml) prepared by sonication in PBS and turbidity was monitored in a Victor^3 plate reader (Perkin Elmer, USA) by monitoring absorbance at 660 nm for 1 h at 24°C. Samples were shaken at 300 RPM. Absorbance over time was plotted and areas-under-the-curve (AOC) were calculated. PBS was used as a negative control sample and Triton X-100 at a final concentration of 1% (w/v) was used as positive control.

Sequence of Proteinase K (P06873 106-384): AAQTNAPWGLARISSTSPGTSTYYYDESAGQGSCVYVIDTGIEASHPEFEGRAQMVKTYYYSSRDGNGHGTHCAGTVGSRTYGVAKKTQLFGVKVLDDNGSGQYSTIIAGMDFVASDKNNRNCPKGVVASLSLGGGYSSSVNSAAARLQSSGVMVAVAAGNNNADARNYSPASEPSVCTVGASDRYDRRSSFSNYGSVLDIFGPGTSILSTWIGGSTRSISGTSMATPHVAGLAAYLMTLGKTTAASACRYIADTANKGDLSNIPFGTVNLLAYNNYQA

Structure (SMILES): CCCCCCCC(=O)NC(C)(C)C(=O)N[C@@H](CCCC)C(=O)N[C@]1(C)CCCCCCC=CCCCC2(CCCC=CCCCCCC[C@@](C)(C(=O)N[C@@H](CCCCN)C(=O)N(C)CC(=O)N[C@H](CCC(=O)O)C(=O)N[C@H](CCC(=O)O)C(=O)O)NC(=O)[C@H](C(C)C)NC(=O)[C@H](CO)NC(=O)[C@H](CC(C)C)NC(=O)[C@H](C(C)C)NC(=O)[C@H](CCC(N)=O)NC(=O)[C@H](CC(=O)O)NC2=O)NC(=O)[C@H](Cc2ccccc2)NC(=O)[C@H]([C@@H](C)CC)NC(=O)CNC(=O)[C@H]([C@@H](C)O)NC(=O)[C@H](Cc2ccc(O)cc2)NC(=O)[C@H]([C@@H](C)O)NC1=O (some centres unmarked) [SP2a]
secondary structure by CD (result in words) [1]: highly helical | plasma triglycerides, 1-hour time point (Apoc2^h/h mice; 1 h, compared with D6PV): possibly less effective | plasma triglycerides, 3-hour time point (Apoc2^h/h mice; 3 h): lowered plasma triglycerides like D6PV | intact full-length peptide after trypsin incubation (trypsin): highly resistant to proteolysis | intact full-length peptide after Proteinase K incubation (Proteinase K): highly resistant to proteolysis | in vitro LPL activation, dose response (result in words) (LPL from bovine milk): more potent than SP1 and D6PV | intact full-length peptide after pepsin incubation (Pepsin): highly resistant to proteolysis

in vitro LPL activation, dose response (result in words) (LPL from bovine milk): just as active
Structure (SMILES): CC[C@H](C)[C@@H]1NC(=O)CNC(=O)[C@H]([C@@H](C)O)NC(=O)[C@H](Cc2ccc(O)cc2)NC(=O)[C@H]([C@@H](C)O)NC(=O)[C@](C)(NC(=O)[C@H](CCSC)NC(=O)[C@H](C)N)CCCCCCC=CCCC[C@@](C)(C(=O)N[C@@H](CC(=O)O)C(=O)N[C@@H](CCC(N)=O)C(=O)N[C@H](C(=O)N[C@@H](CC(C)C)C(=O)N[C@@H](CO)C(=O)N[C@H](C(=O)N[C@@H](CC(C)C)C(=O)N[C@@H](CCCCN)C(=O)NCC(=O)N[C@@H](CCC(=O)O)C(=O)N[C@@H](CCC(=O)O)C(=O)O)C(C)C)C(C)C)NC(=O)[C@H](Cc2ccccc2)NC1=O [P6] (H-AM[R8]TYTGIF[S5]DQVLSVLKGEE-OH; staple 3-10 (inferred); N-terminus and C-terminus assumed)

EC50 (LPL from bovine milk): 25 to 33 nM
Structure (SMILES): CC[C@H](C)[C@@H]1NC(=O)CNC(=O)[C@H]([C@@H](C)O)NC(=O)[C@H](Cc2ccc(O)cc2)NC(=O)[C@H]([C@@H](C)O)NC(=O)[C@](C)(NC(=O)[C@H](CCSC)NC(=O)[C@H](C)NC(=O)[C@H](C)NC(=O)[C@@H](NC(=O)[C@H](CO)NC(=O)[C@H](CCCCN)NC(=O)[C@H](CO)NC(=O)[C@H](Cc2ccc(O)cc2)NC(=O)[C@H](CC(C)C)NC(=O)[C@H](CC(=O)O)NC(=O)[C@H](CCCNC(=N)N)NC(=O)[C@H](CC(C)C)NC(=O)[C@H](CCCCN)NC(=O)[C@@H](N)CCC(=O)O)[C@@H](C)O)CCCCCCC=CCCC[C@@](C)(C(=O)N[C@@H](CC(=O)O)C(=O)N[C@@H](CCC(N)=O)C(=O)N[C@H](C(=O)N[C@@H](CC(C)C)C(=O)N[C@@H](CO)C(=O)N[C@H](C(=O)N[C@@H](CC(C)C)C(=O)N[C@@H](CCCCN)C(=O)NCC(=O)N[C@@H](CCC(=O)O)C(=O)N[C@@H](CCC(=O)O)C(=O)O)C(C)C)C(C)C)NC(=O)[C@H](Cc2ccccc2)NC1=O [P5] (H-EKLRDLYSKSTAAM[R8]TYTGIF[S5]DQVLSVLKGEE-OH; staple 15-22)

DMPC vesicle solubilization [2]: inactive
Structure (SMILES): CC[C@H](C)[C@H](NC(=O)CNC(=O)[C@@H](NC(=O)[C@H](Cc1ccc(O)cc1)NC(=O)[C@@H](NC(=O)[C@H](CO)NC(=O)[C@H](CCSC)NC(=O)[C@H](C)N)[C@@H](C)O)[C@@H](C)O)C(=O)N[C@@H](Cc1ccccc1)C(=O)N[C@H](C(=O)N[C@@H](CC(=O)O)C(=O)N[C@@H](CCC(N)=O)C(=O)N[C@H](C(=O)N[C@@H](CC(C)C)C(=O)N[C@@H](CO)C(=O)N[C@H](C(=O)N[C@@H](CC(C)C)C(=O)N[C@@H](CCCCN)C(=O)NCC(=O)N[C@@H](CCC(=O)O)C(=O)N[C@@H](CCC(=O)O)C(=O)O)C(C)C)C(C)C)[C@@H](C)O [P8, reference compound] (H-AMSTYTGIFTDQVLSVLKGEE-OH)

EC50 (LPL from bovine milk): 25 to 33 nM
Structure (SMILES): CC[C@H](C)[C@H](NC(=O)CNC(=O)[C@]1(C)CCCC=CCCCCCC[C@@](C)(NC(=O)[C@H](CO)NC(=O)[C@H](CCCCN)NC(=O)[C@H](CO)NC(=O)[C@H](Cc2ccc(O)cc2)NC(=O)[C@H](CC(C)C)NC(=O)[C@H](CC(=O)O)NC(=O)[C@H](CCCNC(=N)N)NC(=O)[C@H](CC(C)C)NC(=O)[C@H](CCCCN)NC(=O)[C@@H](N)CCC(=O)O)C(=O)N[C@@H](C)C(=O)N[C@@H](C)C(=O)N[C@@H](CCSC)C(=O)N[C@@H](CO)C(=O)N[C@@H]([C@@H](C)O)C(=O)N[C@@H](Cc2ccc(O)cc2)C(=O)N1)C(=O)N[C@@H](Cc1ccccc1)C(=O)N[C@H](C(=O)N[C@@H](CC(=O)O)C(=O)N[C@@H](CCC(N)=O)C(=O)N[C@H](C(=O)N[C@@H](CC(C)C)C(=O)N[C@@H](CO)C(=O)N[C@H](C(=O)N[C@@H](CC(C)C)C(=O)N[C@@H](CCCCN)C(=O)NCC(=O)N[C@@H](CCC(=O)O)C(=O)N[C@@H](CCC(=O)O)C(=O)O)C(C)C)C(C)C)[C@@H](C)O [P3] (H-EKLRDLYSKS[R8]AAMSTY[S5]GIFTDQVLSVLKGEE-OH; staple 11-18)
